Results taken from patent US11530244B2, “Cyclic polypeptides for PCSK9 inhibition” (priority 2018, dated 2022).
Starred links: 1 amine or outer side, 2 acyl side, 3 side chain; linkers in the order of their positions; H or OH if unused. Positions of bridges follow the written chain, without caps; N, C: chain ends. Non-standard residues stand in square brackets, D forms with d. Residues, ends and D or L forms follow the SMILES beside them. ξ: configuration not given here. X43 = O=C(CC[S+]([O-])Cc1cc(F)cc(CSCCN[*:1])c1)[*:2]; NHCH2(1,3-C6H4)CH2CO = O=C(Cc1cccc(CN[*:1])c1)[*:2]; X25 = O=C([C@H](Cc1cccc(OCC=[*:3])c1)N[*:1])[*:2]; Phe(4-COOH) = N[C@@H](Cc1ccc(C(=O)O)cc1)C(=O)O; Trp(5-F) = N[C@@H](Cc1c[nH]c2ccc(F)cc12)C(=O)O; Trp(6-F) = N[C@@H](Cc1c[nH]c2cc(F)ccc12)C(=O)O; dTrp(5-F) = N[C@H](Cc1c[nH]c2ccc(F)cc12)C(=O)O; dPro(cis-4-NH2) = N[C@H]1CN[C@@H](C(=O)O)C1; X42 = CN([C@@H](CCC=[*:3])C(=O)[*:2])[*:1]; mXylylene(5-F) = Fc1cc(C[*:1])cc(C[*:2])c1; Pro(cis-4-F) = O=C(O)[C@@H]1C[C@H](F)CN1; Lys(N3) = [N-]=[N+]=NCCCC[C@H](N)C(=O)O; X4 = O=C(CCSCc1cccc(CSCCN[*:1])c1)[*:2]; X27 = O=C([C@@H](N[*:1])C1(O)CC1)[*:2]; mXylylene = c1cc(C[*:1])cc(C[*:2])c1; X39 = c1cc(CCSCN[*:2])cc(C[*:1])c1; X41 = O=C(Cc1ccc(N[*:1])cc1)[*:2]; Aad = N[C@@H](CCCC(=O)O)C(=O)O; aThr = C[C@H](O)[C@H](N)C(=O)O; d(αMeP) = C[C@]1(C(=O)O)CCCN1; Tle = CC(C)(C)[C@H](N)C(=O)O; αMeP = C[C@@]1(C(=O)O)CCCN1; Orn = NCCC[C@H](N)C(=O)O; ξD = NC(CC(=O)O)C(=O)O; X2 = O=C(C[*:2])[*:1]; Mpa = O=C(O)CCS

What was measured:
[1] = biological target: human PCSK9 / human LDLR EGFa domain interaction (Homo sapiens (Human), UniProt Q8NBP7); experiment: TR-FRET assay of inhibition of the PCSK9-LDLR protein-protein interaction; assay type: binding; settings: TR-FRET, 20 nM human PCSK9, 20 nM human LDLR EGFa domain, 2 hours room temperature; read-out: IC50
Chain of human PCSK9 / human LDLR EGFa domain interaction (Q8NBP7 153-692): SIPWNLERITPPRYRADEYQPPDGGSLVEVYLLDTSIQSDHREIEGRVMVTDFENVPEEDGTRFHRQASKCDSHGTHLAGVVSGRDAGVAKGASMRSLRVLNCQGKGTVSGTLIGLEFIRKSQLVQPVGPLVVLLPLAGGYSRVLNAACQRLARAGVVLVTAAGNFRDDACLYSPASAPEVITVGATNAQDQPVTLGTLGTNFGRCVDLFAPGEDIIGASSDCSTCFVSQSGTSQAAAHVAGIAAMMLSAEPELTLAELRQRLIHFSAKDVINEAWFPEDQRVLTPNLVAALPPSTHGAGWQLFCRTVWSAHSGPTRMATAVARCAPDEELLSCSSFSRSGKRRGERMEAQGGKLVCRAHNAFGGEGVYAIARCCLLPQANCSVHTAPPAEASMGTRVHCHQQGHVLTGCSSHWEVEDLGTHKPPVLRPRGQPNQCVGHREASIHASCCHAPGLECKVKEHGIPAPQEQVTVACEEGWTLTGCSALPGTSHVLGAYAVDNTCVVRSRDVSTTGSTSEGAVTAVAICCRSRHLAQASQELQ
Chain of human PCSK9 / human LDLR EGFa domain interaction (Q8NBP7 31-152 partner): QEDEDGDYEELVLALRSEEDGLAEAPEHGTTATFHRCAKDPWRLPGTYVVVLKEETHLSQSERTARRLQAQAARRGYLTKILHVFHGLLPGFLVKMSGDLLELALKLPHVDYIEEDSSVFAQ
Procedure, shortened: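 Avitag-biotinylated human PCSK9 (20 nM) and his-tagged human LDLR EGFa domain (20 nM) were incubated with 5 nM Ulight streptavidin and 5 nM europium anti-6×His for 2 h at room temperature. Buffer: 50 mM HEPES, 150 mM NaCl, 5 mM CaCl2, 0.01% BSA, 0.01% P20. IC50 from 4-parameter fit of dose-response.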

PCSK9 = PCSK9 (Homo sapiens (Human), UniProt Q8NBP7); experiment: PCSK9 Alexa FRET Standard assay (displacement of AlexaFluor647 tagged cyclic peptide Reagent A); assay type: binding; settings: PCSK9 Alexa FRET Standard assay, 0.5 nM PCSK9, 20 nM AF cyclic peptide Reagent A; read-out: IC50
Chain of PCSK9 (Q8NBP7 153-692): as the sequence (Q8NBP7 153-692) above
Procedure, shortened: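 TR-FRET displacement: 0.5 nM biotinylated PCSK9 with 1.25 nM Strep-Eu and 20 nM AlexaFluor-tagged cyclic peptide (final) in 50 mM HEPES pH 7.4, 0.15 M NaCl, 5 mM CaCl2, 0.01% BSA, 0.01% P20, ≥2 h at room temperature. IC50 from sigmoidal fit, converted to Ki via peptide KD; falling Eu counts flagged false positives.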

Row | SMILES | IC50 [1] | IC50 (PCSK9)
1 | COc1ccc(C[C@@H]2NC(=O)[C@@H]3CCC/C=C\CO[C@H]4C[C@@H](C(=O)N3)N(C4)C(=O)[C@H](Cc3c[nH]c4ccc(F)cc34)NC(=O)[C@H](Cc3c[nH]c4ccc(F)cc34)NC(=O)[C@@H](C)NC(=O)[C@H](CCCCN)NC(=O)CCSCc3cccc(c3)CSC[C@@H](C(N)=O)NC(=O)[C@]3(C)CCCN3C2=O)cc1 [Compound 500] | 1000 to 12100 nM | 1000 to 12100 nM
2 | COc1ccc(C[C@@H]2NC(=O)[C@H]([C@H](C)OC)NC(=O)[C@@H]3C[C@H](F)CN3C(=O)[C@H](Cc3c[nH]c4ccc(F)cc34)NC(=O)[C@H](Cc3c[nH]c4ccc(F)cc34)NC(=O)[C@@H](C)NC(=O)[C@H](CCCCN)NC(=O)CCSCc3cccc(c3)CSC[C@@H](C(N)=O)NC(=O)[C@]3(C)CCCN3C2=O)cc1 [Compound 072] ([Mpa]K[dA][Trp(5-F)][Trp(5-F)][Pro(cis-4-F)][aThr](Me)Y(Me)[αMeP]C-NH2; linker 1-10 via mXylylene) | 100 to 1000 nM | 1000 to 12100 nM
3 | COc1ccc(C[C@@H]2NC(=O)[C@@H]3CCCC(=O)N[C@H]4C[C@@H](C(=O)N3)N(C4)C(=O)[C@H](Cc3c[nH]c4ccc(F)cc34)NC(=O)[C@H](Cc3c[nH]c4ccc(F)cc34)NC(=O)[C@@H](C)NC(=O)[C@H](C)NCCSCc3ccc(cc3)CSCCNC(=O)[C@]3(C)CCCN3C2=O)cc1 [Compound 519] | 1000 to 12100 nM | 1000 to 12100 nM
4 | COc1ccc(C[C@@H]2NC(=O)[C@@H]3CC/C=C/CC[C@H](NC(=O)[C@H](Cc4c[nH]c5ccc(F)cc45)NC(=O)[C@H](Cc4c[nH]c5ccc(F)cc45)NC(=O)[C@@H](C)NC(=O)[C@H](CCCCN)NC(=O)CCSCc4cccc(c4)CSCCNC(=O)[C@]4(C)CCCN4C2=O)C(=O)N3)cc1 [Compound 493] | 1000 to 12100 nM | 1000 to 12100 nM
5 | COc1ccc(C[C@@H]2NC(=O)[C@H](CCCC(=O)O)NC(=O)[C@H]3C[C@@H](N)CN3C(=O)[C@H](Cc3c[nH]c4ccc(F)cc34)NC(=O)[C@H](Cc3c[nH]c4ccc(F)cc34)NC(=O)[C@@H](C)NC(=O)[C@H](CCCCN=[N+]=[N-])NC(=O)CCSCc3cccc(c3)CCSCNC(=O)[C@]3(C)CCCN3C2=O)cc1 [Compound 408] ([Mpa][Lys(N3)][dA][Trp(5-F)][Trp(5-F)][dPro(cis-4-NH2)][Aad]Y(Me)[αMeP]; linker 1-C via X39) | 21000 to 50000 nM | 21000 to 50000 nM
6 | COc1ccc(C[C@H]2NC(=O)[C@@H](Cc3c[nH]cn3)NC(=O)[C@@H](CC(=O)O)NC(=O)[C@@H](Cc3c[nH]c4ccc(F)cc34)NC(=O)[C@@H](Cc3c[nH]c4ccc(F)cc34)NC(=O)[C@H](C(C)(C)C)NC(=O)[C@@H](CCCCN)NC(=O)CCSCc3cccc(c3)CSCCNC(=O)[C@@]3(C)CCCN3C2=O)cc1 [Compound 362] (cyclo([Tle][dTrp(5-F)][dTrp(5-F)][dD][dH][dY](Me)[d(αMeP)][X4][dK])) | 0.1 to 100 nM | 0.11 to 100 nM
7 | COc1ccc(C[C@@H]2NC(=O)[C@H]([C@@H](C)OC)NC(=O)[C@@H]3CC/C=C/COc4cccc(c4)C[C@H](NC(=O)[C@@H](C)NC(=O)[C@H](C)NC(=O)CC[S+]([O-])Cc4cc(F)cc(c4)CSCCNC(=O)[C@]4(C)CCCN4C2=O)C(=O)N[C@@H](Cc2c[nH]c4ccc(F)cc24)C(=O)N3C)cc1 (stereo partly drawn) [Compound 507] (cyclo(A[dA][X25][Trp(5-F)][X42]T(Me)Y(Me)[αMeP][X43]); staple (E) 3-5) | 0.1 to 100 nM | 0.11 to 100 nM
8 | COc1ccc(C[C@@H]2NC(=O)[C@H](Cc3cnc[nH]3)NC(=O)[C@H](CC(=O)O)NC(=O)[C@H](Cc3c[nH]c4ccc(F)cc34)NC(=O)[C@H](Cc3c[nH]c4ccc(F)cc34)NC(=O)[C@@H](C)NC(=O)Cc3cccc(c3)CNC(=O)c3ccc(cc3)C[C@@H](C(N)=O)NC(=O)[C@]3(C)CCCN3C2=O)cc1 [Compound 390] ([NHCH2(1,3-C6H4)CH2CO][dA][Trp(5-F)][Trp(5-F)]DHY(Me)[αMeP][Phe(4-COOH)]-NH2; lactam N-9) | 0.1 to 100 nM | 100 to 1000 nM

Now from value to molecule:

Row | IC50 [1] | IC50 (PCSK9) | SMILES
9 | 100 to 1000 nM | 1000 to 12100 nM | CC(=O)N[C@H]1CCCNC(=O)c2ccc(cc2)C[C@@H](C(N)=O)NC(=O)[C@]2(C)CCCN2C(=O)[C@H](Cc2ccc(O)cc2)NC(=O)[C@H](Cc2cnc[nH]2)NC(=O)[C@H](CC(=O)O)NC(=O)[C@H](Cc2c[nH]c3cc(F)ccc23)NC(=O)[C@H](Cc2c[nH]c3ccc(F)cc23)NC(=O)CNC(=O)[C@H](C)NC1=O [Compound 314] (Ac-[Orn]AG[Trp(5-F)][Trp(6-F)]DHY[αMeP][Phe(4-COOH)]-NH2; lactam 1-10)
10 | 100 to 1000 nM | 100 to 1000 nM | C[C@@]12CCCN1C(=O)[C@H](Cc1ccc(O)cc1)NC(=O)[C@H](Cc1cnc[nH]1)NC(=O)[C@H](CC(=O)O)NC(=O)[C@H](Cc1c[nH]c3ccc(F)cc13)NC(=O)[C@H](Cc1c[nH]c3ccc(F)cc13)NC(=O)CNC(=O)[C@H](C1(O)CC1)NC(=O)CCSCc1cccc(c1)CSC[C@@H](C(N)=O)NC2=O [Compound 372] ([Mpa][X27]G[Trp(5-F)][Trp(5-F)]DHY[αMeP]C-NH2; linker 1-10 via mXylylene)
11 | 1000 to 12100 nM | 1000 to 12100 nM | CC(=O)N[C@H]1CCCn2cc(nn2)CCC[C@@H](C(N)=O)NC(=O)[C@]2(C)CCCN2C(=O)[C@H](Cc2ccc(O)cc2)NC(=O)[C@H](Cc2cnc[nH]2)NC(=O)[C@H](CC(=O)O)NC(=O)[C@H](Cc2c[nH]c3ccc(F)cc23)NC(=O)[C@H](Cc2c[nH]c3ccc(F)cc23)NC(=O)CNC(=O)[C@H](C)NC1=O [Compound 333]
12 | 0.1 to 100 nM | 0.11 to 100 nM | COc1ccc(C[C@@H]2NC(=O)[C@@H]3CCC/C=C\CO[C@H]4C[C@@H](C(=O)N3)N(C4)C(=O)[C@H](Cc3c[nH]c4ccc(F)cc34)NC(=O)[C@H](Cc3c[nH]c4ccc(F)cc34)NC(=O)[C@@H](C)NC(=O)CCCCCC(=O)NCc3ccc(cc3)C[C@@H](C(N)=O)NC(=O)[C@]3(C)CCCN3C2=O)cc1 [Compound 512]
13 | 1000 to 12100 nM | 1000 to 12100 nM | COc1ccc(C[C@@H]2NC(=O)[C@H](Cc3cnc[nH]3)NC(=O)[C@H](CC(=O)O)NC(=O)[C@H](Cc3c[nH]c4ccc(F)cc34)NC(=O)[C@H](Cc3c[nH]c4ccc(F)cc34)NC(=O)[C@@H](C)NC(=O)[C@H](CCCCN)NC(=O)CCSCc3cc(F)cc(c3)CSC[C@@H](C(N)=O)NC(=O)[C@]3(C)CCCN3C2=O)cc1 [Compound 338] ([Mpa]K[dA][Trp(5-F)][Trp(5-F)]DHY(Me)[αMeP]C-NH2; linker 1-10 via mXylylene(5-F))
14 | 1000 to 12100 nM | 1000 to 12100 nM | COc1ccc(C[C@@H]2NC(=O)[C@H](Cc3cnc[nH]3)NC(=O)[C@H](CC(=O)O)NC(=O)[C@H](Cc3c[nH]c4ccc(F)cc34)NC(=O)[C@H](Cc3c[nH]c4ccc(F)cc34)NC(=O)[C@@H](C)NC(=O)Cc3ccc(cc3)NC(=O)CC(C(=O)O)NC(=O)[C@]3(C)CCCN3C2=O)cc1 (stereo partly drawn) [Compound 402] ([X41][dA][Trp(5-F)][Trp(5-F)]DHY(Me)[αMeP][ξD]-OH; lactam N-9)
15 | 100 to 1000 nM | 100 to 1000 nM | CC(=O)N[C@H]1CCCNC(=O)COc2ccc(cc2)C[C@@H](C(N)=O)NC(=O)[C@]2(C)CCCN2C(=O)[C@H](Cc2ccc(O)cc2)NC(=O)[C@H](Cc2cnc[nH]2)NC(=O)[C@H](CC(=O)O)NC(=O)[C@H](Cc2c[nH]c3ccc(F)cc23)NC(=O)[C@H](Cc2c[nH]c3ccc(F)cc23)NC(=O)CNC(=O)[C@H](C)NC1=O [Compound 364] (Ac-[Orn]AG[Trp(5-F)][Trp(5-F)]DHY[αMeP]Y-NH2; linker 1-10 via X2)
